# Measured values: PubChem BioAssay AID652218 (The Scripps Research Institute Molecular Screening Center, 2013)
# Calls of active or inactive are those of the source.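 Rule for the calls: active = inhibition of the phosphatase PP1 of at least 70% at 50 µM; inactive = the rest.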
# Molecular target: Serine/threonine-protein phosphatase PP1-alpha catalytic subunit (Homo sapiens) (UniProt P62136)
# Assay: PP1 inhibitors, OMFP dephosphorylation, confirmation, biochemical, fluorescence, OMFP substrate, powder samples, set 2 (AID 652218)
# Details: purified PP1alpha, at 50 µM, active compounds read high
# Serine/threonine-protein phosphatase PP1-alpha catalytic subunit (Homo sapiens), sequence (P62136 whole entry, looked up): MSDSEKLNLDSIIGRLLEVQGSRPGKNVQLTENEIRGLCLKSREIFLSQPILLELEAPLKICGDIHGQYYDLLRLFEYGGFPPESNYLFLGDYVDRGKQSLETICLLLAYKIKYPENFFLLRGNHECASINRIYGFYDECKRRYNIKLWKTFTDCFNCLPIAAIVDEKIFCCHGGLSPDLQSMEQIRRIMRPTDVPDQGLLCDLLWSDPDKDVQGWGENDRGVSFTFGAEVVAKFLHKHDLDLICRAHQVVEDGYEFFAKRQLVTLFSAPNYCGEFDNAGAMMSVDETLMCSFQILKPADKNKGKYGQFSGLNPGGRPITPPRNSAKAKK
row,inhibition,SMILES
1,73.1%,CN1CCN(Cc2cc(Cl)c3cccnc3c2O)CC1
2,45% (inactive),CN1CCN(C(c2ccncc2)c2cc(Cl)c3cccnc3c2O)CC1 (stereo unspecified)
3,97.9%,COc1ccc(C(c2ccc3cccnc3c2O)N2CCN(C)CC2)nc1 (stereo unspecified)
4,107%,Oc1c(C(c2ccccn2)N2CCCC2)ccc2cccnc12 (stereo unspecified)
5,99.9%,Cc1cccnc1C(c1ccc2cccnc2c1O)N1CCN(C)CC1 (stereo unspecified)
6,83.5%,Oc1c(C(c2ccccn2)N2CCNCC2)cc(Cl)c2cccnc12 (stereo unspecified)
7,66.1% (inactive),COCOc1c(C(c2ccccn2)N2CCN(C)CC2)ccc2cccnc12 (stereo unspecified)
8,6.19% (inactive),CN1CCN(C(c2ccccn2)c2cc(Cl)ccc2O)CC1 (stereo unspecified)
9,89.3%,Oc1c(C(c2ccccn2)N2CCC(Cc3ccccc3)CC2)cc(Cl)c2cccnc12 (stereo unspecified)
10,90.5%,CC(C)(C)OC(=O)N1CCN(C(c2ccccn2)c2cc(Cl)c3cccnc3c2O)CC1 (stereo unspecified)
11,98.4%,CCN1CCN(C(c2ccccn2)c2cc(Cl)c3cccnc3c2O)CC1 (stereo unspecified)
12,103%,Cc1cccc(C(c2ccc3cccnc3c2O)N2CCN(C)CC2)n1 (stereo unspecified)
13,27.2% (inactive),CN1CCN(C(c2ccccn2)c2cc(Cl)c3ccccc3c2O)CC1 (stereo unspecified)
14,104%,Cc1ccnc(C(c2ccc3cccnc3c2O)N2CCN(C)CC2)c1 (stereo unspecified)
15,105%,Oc1c(C(c2ccccn2)N2CCOCC2)cc(Cl)c2cccnc12 (stereo unspecified)
16,99%,CCOC(c1ccccn1)c1cc(Cl)c2cccnc2c1O (stereo unspecified)
17,99.8%,CN1CCN(C(c2ccc(C(F)(F)F)cn2)c2ccc3cccnc3c2O)CC1 (stereo unspecified)
18,79.1%,CN1CCN(C(c2ccccc2)c2cc(Cl)c3cccnc3c2O)CC1 (stereo unspecified)

row,inhibition,SMILES
1,100%,Oc1c(CN2CCN(c3ccccc3)CC2)cc(Cl)c2cccnc12
2,106%,Oc1c(C(NC2CCCCC2)c2ccccn2)ccc2cccnc12 (stereo unspecified)
3,104%,Cc1ccc(C(c2ccc3cccnc3c2O)N2CCN(C)CC2)nc1 (stereo unspecified)
4,98.4%,CN1CCN(C(c2ccccn2)c2cc(Cl)c3cccnc3c2O)CC1 (stereo unspecified)
5,102%,Oc1c(CN2CCN(c3ccccn3)CC2)cc(Cl)c2cccnc12
6,97.3%,CN1CCC(NC(c2ccccn2)c2ccc3cccnc3c2O)CC1 (stereo unspecified)
7,102%,Oc1c(Cc2ccccn2)ccc2cccnc12
8,107%,COc1cccc(C(c2ccc3cccnc3c2O)N2CCN(C)CC2)n1 (stereo unspecified)
9,40% (inactive),CN1CCN(C(c2cccnc2)c2cc(Cl)c3cccnc3c2O)CC1 (stereo unspecified)
10,104%,CC1CCN(C(c2ccccn2)c2cc(Cl)c3cccnc3c2O)CC1 (stereo unspecified)
11,102%,CN1CCN(C(c2ccc3cccnc3c2O)c2ncccc2C(F)(F)F)CC1 (stereo unspecified)
12,101%,Oc1c(C(c2ccccn2)N2CCN(c3ccccc3F)CC2)cc(Cl)c2cccnc12 (stereo unspecified)
13,88.6%,CN1CCN(C(c2cccs2)c2cc(Cl)c3cccnc3c2O)CC1 (stereo unspecified)
14,101%,Cc1ccc2ccc(C(c3ccccn3)N3CCN(C)CC3)c(O)c2n1 (stereo unspecified)
15,104%,COc1ccnc(C(c2ccc3cccnc3c2O)N2CCN(C)CC2)c1 (stereo unspecified)
16,93.8%,CN1CCN(C(c2ncccn2)c2ccc3cccnc3c2O)CC1 (stereo unspecified)
17,103%,CN1CCN(C(c2nccs2)c2cc(Cl)c3cccnc3c2O)CC1 (stereo unspecified)
18,100%,CN1CCN(C(c2ccccn2)c2ccc3cccnc3c2O)CC1 (stereo unspecified)
